Measured values taken from the NIST ThermoML archive (doi:10.1021/je700260f).

Conditions: 283.14 K, Liquid, Vibrating tube method

FC(C(F)(F)F)C(F)(F)F [1,1,1,2,3,3,3-heptafluoropropane]
Conditions	mass density [kg/m3]
933 kPa	1452.5
962 kPa	1452.6
988 kPa	1452.7
1029 kPa	1453
1062 kPa	1453.3
1091 kPa	1453.4
1127 kPa	1453.7
1160 kPa	1453.8
1193 kPa	1454
1227 kPa	1454.2
1264 kPa	1454.5
1297 kPa	1454.5
1331 kPa	1454.9
1362 kPa	1454.9
1400 kPa	1455.2
1438 kPa	1455.5
1476 kPa	1455.6
1508 kPa	1455.9
1543 kPa	1456
1576 kPa	1456.3
1621 kPa	1456.5
1656 kPa	1456.8
1696 kPa	1456.8
1725 kPa	1457.1
1760 kPa	1457.3
1800 kPa	1457.5
1829 kPa	1457.7
1869 kPa	1457.9
1899 kPa	1458.1
1939 kPa	1458.4
1978 kPa	1458.6
2027 kPa	1458.8
2062 kPa	1459.1
2097 kPa	1459.2
2137 kPa	1459.6
2167 kPa	1459.6
2214 kPa	1460
2245 kPa	1460.1
2282 kPa	1460.4
2317 kPa	1460.6
2349 kPa	1460.8
2385 kPa	1460.9
2431 kPa	1461.1
2457 kPa	1461.1
2499 kPa	1461.5
2536 kPa	1461.6
2578 kPa	1461.9
2615 kPa	1462.1
3150 kPa	1465
3179 kPa	1465.2
3208 kPa	1465.5
3236 kPa	1465.6
3261 kPa	1465.6
3292 kPa	1465.8
3316 kPa	1465.9
3349 kPa	1466.2
3370 kPa	1466.4
3404 kPa	1466.4
3440 kPa	1466.6
3467 kPa	1466.9
3502 kPa	1467
3528 kPa	1467
3555 kPa	1467.3
3582 kPa	1467.3
3606 kPa	1467.5
3630 kPa	1467.6
3997 kPa	1469.6
4037 kPa	1469.8
4059 kPa	1469.8
4089 kPa	1470.1
4112 kPa	1470.1
4138 kPa	1470.4
4161 kPa	1470.5
4194 kPa	1470.6
4220 kPa	1470.8
4246 kPa	1470.9
4268 kPa	1471.1
4295 kPa	1471.2
4326 kPa	1471.4
4370 kPa	1471.5
4397 kPa	1471.6
4431 kPa	1471.8
4454 kPa	1472
4485 kPa	1472.1
4521 kPa	1472.3
4552 kPa	1472.4
4587 kPa	1472.7
4611 kPa	1472.8
4642 kPa	1472.9
4662 kPa	1473.1
4691 kPa	1473.2
4714 kPa	1473.3
4746 kPa	1473.5
4770 kPa	1473.6
4833 kPa	1473.9
4872 kPa	1474.1
4976 kPa	1474.5
5454 kPa	1477.2
5490 kPa	1477.3
5691 kPa	1478.2
5724 kPa	1478.4
5757 kPa	1478.6
5782 kPa	1478.8
5822 kPa	1478.8
5855 kPa	1479
5879 kPa	1479.1
5908 kPa	1479.3
5934 kPa	1479.4
5968 kPa	1479.6
6005 kPa	1479.8
6027 kPa	1480
6058 kPa	1480
6101 kPa	1480.2
6135 kPa	1480.5
6165 kPa	1480.5
6229 kPa	1480.8
6973 kPa	1484.5
7472 kPa	1486.7
7512 kPa	1487.1
7539 kPa	1487.1
7568 kPa	1487.2
7596 kPa	1487.1
7625 kPa	1487.3
7646 kPa	1487.8
7680 kPa	1487.8
7705 kPa	1487.9
7731 kPa	1488
7762 kPa	1488.1
7796 kPa	1488.3
7826 kPa	1488.4
7851 kPa	1488.5
7877 kPa	1488.7
7906 kPa	1488.9
7932 kPa	1488.9
7965 kPa	1489
7991 kPa	1489.2
8025 kPa	1489.4
8050 kPa	1489.5
8079 kPa	1489.7
8109 kPa	1489.6
8138 kPa	1489.9
8164 kPa	1490.1
8197 kPa	1490
8223 kPa	1490.2
8257 kPa	1490.4
8291 kPa	1490.6
8322 kPa	1490.7
10618 kPa	1500.7
10644 kPa	1500.8
10678 kPa	1500.9
10708 kPa	1501.2
10744 kPa	1501.3
11092 kPa	1502.7
11124 kPa	1502.9
11146 kPa	1503
11176 kPa	1503.1
11211 kPa	1503.2
11232 kPa	1503.2
11263 kPa	1503.4
11289 kPa	1503.6
11324 kPa	1503.9
11358 kPa	1503.9
11384 kPa	1503.9
11414 kPa	1504.1
11455 kPa	1504.2
11478 kPa	1504.3
11508 kPa	1504.4
11538 kPa	1504.5
11565 kPa	1504.7
11601 kPa	1504.8
11631 kPa	1505
11663 kPa	1505
11698 kPa	1505.4
11725 kPa	1505.4
11760 kPa	1505.6
11791 kPa	1505.6
11822 kPa	1505.7
11844 kPa	1505.9
11874 kPa	1506
11901 kPa	1506.1
11923 kPa	1506.3
11958 kPa	1506.3
11993 kPa	1506.4
12020 kPa	1506.5
12055 kPa	1506.7
12082 kPa	1506.9
12816 kPa	1509.7
12856 kPa	1510.1
12892 kPa	1510.2
12918 kPa	1510.3
12955 kPa	1510.4
12996 kPa	1510.6
13027 kPa	1510.6
13054 kPa	1510.9
13090 kPa	1510.9
13123 kPa	1511
13165 kPa	1511.2
13197 kPa	1511.2
13235 kPa	1511.5
13290 kPa	1511.7
13323 kPa	1511.8
13385 kPa	1512
13417 kPa	1512.2
13454 kPa	1512.2
13483 kPa	1512.4
